Experimental data as given in patent US20230190717A1, “P38 GAMMA INHIBITORS AND METHOD OF USE THEREOF” (City of Hope, priority 2017, published 2023).
“Also recorded” adds a separate entry of the source.

Experiments:
[1] = system: p38γ; experiment: Time-resolved fluorescence energy transfer enzyme kinetic analysis; type: biochemical
[2] = system: Hut78 cells; experiment: CellTiterGlo cell viability, Hut78; type: cell-based, human; conditions: for effect on viability of Hut78 cells: varying concentrations, 72 hr; for IC50: Homo sapiens, HuT78, 72 h
Experimental: (§2) Viability assays using trypan blue exclusion and CellTiterGlo Cell Viability Assay: Cell viability was calculated by diluting cell suspensions 1:1 in 0.4% TRYPAN BLUE solution (Sigma, St. Louis, Mo.) and counting the number of viable cells using a TC20™ automated cell counter (Bio-Rad, Irvine, Calif.) that automatically excludes the number of non-viable cells stained with trypan blue per total cells. […] All data points are an average of triplicate experiments.
(§3) Absorbance was monitored at 490 nm using an automated BMG PHERAstar plate reader (BMG Labtech). […] All experiments are repeated in three independent experiments and data represented are the average of triplicate experiments.

[3] = target: T1, p38 γ (Homo sapiens, UniProt P53778); experiment: ADP-Glo in vitro kinase assay, p38γ; type: biochemical; parameters: human recombinant p38 α, β, γ or δ protein (active full-length); purchased SignalChem; host or cells: baculovirus in Sf9 insect cells; conditions: for inhibitory kinase activity against p38γ: PI3K inhibitors at 1 and 10 μM; for IC50: in vitro inhibition assay
T1 sequence (P53778 1-367): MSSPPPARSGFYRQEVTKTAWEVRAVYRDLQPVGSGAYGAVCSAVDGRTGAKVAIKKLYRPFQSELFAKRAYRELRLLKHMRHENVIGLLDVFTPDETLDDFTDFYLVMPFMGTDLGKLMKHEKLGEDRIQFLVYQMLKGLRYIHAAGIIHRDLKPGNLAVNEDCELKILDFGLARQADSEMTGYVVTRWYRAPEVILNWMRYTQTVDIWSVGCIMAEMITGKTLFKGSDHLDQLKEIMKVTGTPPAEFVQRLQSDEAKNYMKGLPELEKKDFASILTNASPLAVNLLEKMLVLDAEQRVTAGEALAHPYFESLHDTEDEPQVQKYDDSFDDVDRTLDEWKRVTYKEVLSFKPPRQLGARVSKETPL
Experimental: All compounds are cell-permeable, reversible and well-characterized. For the biochemical screening, kinase assays in vitro were performed using ADP-Glo kit (Promega). The luminescent ADP-Glo kinase assay measures ADP produced from ATP consumption in the reaction.
Kinase assay in vitro: Kinase enzyme assays in vitro were performed using ADP-Glo kit (Promega, Wis.). The luminescent ADP-Glo kinase assay measures ADP produced from ATP consumption in a kinase enzyme reaction. […] Briefly, in this experiment, human recombinant p38 α, β, γ or δ protein (active full-length) expressed by baculovirus in sf9 insect cells (SignalChem, Vancouver, Canada) was homogenized in wells of white opaque 96-well microplates with the kinase buffer that consisted of 40 mM Tris-HCl (pH 7.5), 20 mM MgCl2, 0.1 mg/mL BSA and 50 μM DTT. […] Next, synthetic peptide substrates ([sequence]) were added to the mixture at final concentration of 0.2 μg/μL, followed by adding ATP at various concentrations. The 50 μL mixture was reacted at room temperature for 60 min. Then, ADP-Glo Reagent was incubated in the mixture at room temperature for 40 min, followed by incubation of Kinase Detection Reagent for another 30 min with minor modification as described in the supplier's instruction. Luminescence was measured at an integration time of 0.5 second using an automated BMG PHERAstar plate reader (BMG Labtech). Each experiment was conducted in duplicate or triplicate. […] IC50 values were determined using CalcuSyn software (Biosoft).
IC50 values were determined using CalcuSyn software (Biosoft) based on the data of Figure a.
IC50 values were determined using CalcuSyn software (Biosoft).
All compounds are cell-permeable, reversible, and well-characterized. For the biochemical screening, kinase assays in vitro were performed using ADP-GLO kit (Promega) following manufactures instructions. […] Briefly, for in vitro assay experiments, human recombinant p38 α, β, γ or δ proteins (active full-length) were from [sequence], and followed the protocol of the company. […] Then, ADP-GLO REAGENT was incubated in the mixture at room temperature for 40 min, followed by incubation of Kinase Detection Reagent for another 30 min. IC50 values were determined using [sequence] software (Biosoft, Cambridge, United Kingdom).

[4] = system: phosphorylation of Akt at ser473; experiment: Western blot of Akt Ser473 phosphorylation in Hut78; type: cell-based, human; conditions: Hut78, 4 hr treatment
Experimental: Western blot: Western blots were performed as described previously [5]. Rabbit primary antibodies (Cell Signaling Technology (CST), Danvers, Mass.) were used at the following dilutions: anti-p38α, -p38β, -p38γ, and -p38δ (1:1000), anti-B-tubulin (1:2000), anti-p38 GAPDH 1:1000. […] For detection of p38γ protein level in SS patient samples we used a monoclonal antibody that close to N-terminus of human p38γ MAPK (SAPK3) from Abcam ((ab205926).

[5] = system: HH cells; experiment: CellTiterGlo cell viability, HH; type: cell-based; conditions: Homo sapiens, 72 h
Experimental: as §2, §3

[6] = system: PBMCs isolated from an SS patient; experiment: Annexin V/PI flow cytometry, SS patient PBMCs; type: cell-based, human; conditions: SS PBMC, 200 nM, 24 h
Source text: (§1) Data presented are one experiment in triplicate.

[7] = system: Hut78 CTCL cell line; experiment: Annexin V/PI flow cytometry, Hut78; type: cell-based, human; conditions: Hut78, 200 nM, 24 h
Source text: as §1

[8] = system: p38γ; experiment: p38γ mRNA level and protein expression (Western blot); type: cell-based; conditions: Western blot, 24 hr, 500 nM
Source text: qRT-PCR (real-time quantitative reverse transcription PCR): Total RNA was generated using TRIZOL reagent (Life Technologies, Carlsbad, Calif.) followed by double DNase treatment and column purification using Qiagen RNeasy Clean-up (Qiagen, Germantown, Md.). The Invitrogen […] III First-Strand Synthesis System was used for cDNA synthesis and TaqMan 5700 Sequence Detection System (Applied Biosystems, Foster City, Calif.) were used for qRT-PCR. All PCR reactions were run in triplicate. The amplified transcripts were quantified using the comparative CT method as described. cDNA and primers for MAPK11, 12, 13, and 14 and GAPDH (Table 9) were added to SYBR GREEN PCR Master Mix (SYBR Green I Dye, […]® DNA polymerase, dNTPs with dUTP and optimal buffer components; Applied Biosystems) and subjected to PCR amplification (1 cycle at 95° C. for 3 min; 35 cycles at 95° C. for 15 s and 55° C. for 30 s; 1 cycle at 50° C. for 2 min).

[9] = system: Hut78 cells; experiment: Hut78 cell proliferation / viability; type: cell-based, human
[10] = system: p38γ; experiment: p38 isoform kinase activity (FIG. 20A); type: biochemical
[11] = system: SS patient cells; experiment: Apoptosis and growth in primary SS patient cells; type: cell-based, human
[12] = system: healthy CD4+ T cells; experiment: Apoptosis and growth in healthy CD4+ T cells; type: cell-based, human; conditions: FIG. 19E
[13] = system: CTCL cells; experiment: CTCL cell growth / killing; type: cell-based
[14] = system: Hut78 xenografts; experiment: Hut78 xenograft tumor growth in mice; type: in vivo
[15] = system: p38γ substrate DLGH1 at Ser158; experiment: Western blot of Hut78 cells for phosphorylation of p38γ substrate; type: cell-based, human
[16] = system: p38γ substrate DLGH1 at Ser158; experiment: Immunohistochemistry in F7-treated CTCL xenograft mouse tissue; type: in vivo; conditions: data not shown
[17] = target: PI3Kγ (Homo sapiens, UniProt P48736); conditions: PI3Kγ isoform; cited from earlier work
[18] = system: H9 cells; experiment: CellTiterGlo cell viability, H9; conditions: Homo sapiens, H9, 72 h
Experimental: as §2, §3

[19] = target: T2, p38δ (Homo sapiens, UniProt O15264); experiment: p38 isoform kinase activity (FIG. 20A); type: biochemical; parameters: human recombinant p38 α, β, γ or δ protein (active full-length); purchased SignalChem; host or cells: baculovirus in Sf9 insect cells; conditions: p38δ (printed "6")
T2 sequence (O15264 1-365): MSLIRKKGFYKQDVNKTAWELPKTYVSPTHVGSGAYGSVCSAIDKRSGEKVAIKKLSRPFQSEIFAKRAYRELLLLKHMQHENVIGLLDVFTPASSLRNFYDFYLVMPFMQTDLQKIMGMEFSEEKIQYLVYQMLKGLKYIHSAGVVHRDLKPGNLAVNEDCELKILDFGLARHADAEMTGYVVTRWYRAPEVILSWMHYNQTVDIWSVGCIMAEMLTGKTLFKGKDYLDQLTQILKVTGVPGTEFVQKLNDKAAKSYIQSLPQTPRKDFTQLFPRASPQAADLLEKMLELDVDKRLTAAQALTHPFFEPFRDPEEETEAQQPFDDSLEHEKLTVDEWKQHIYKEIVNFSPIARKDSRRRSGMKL

[20] = system: p38γ; experiment: p38γ inhibition at the concentration used in the RNAi library screen; conditions: 10 uM, data not shown
Source text: Synthetic lethal RNAi screen. We will use a synthetic lethal RNAi screen in the presence of sub-lethal p38γ inhibition to identify critical downstream signaling components in CTCL (FIG. 31). We will transduce control and p38γ inhibitor-treated Hut78 CTCL cells with a pooled retroviral RNAi library that targets genes involved in human cancers. Because loss of p38γ alone causes CTCL cell death, we will titrate the dose and/or length of exposure to the p38γ inhibitor to ensure a sub-lethal effect. The target gene of an shRNA that causes death in cells treated with sub-lethal p38γ inhibitor but not control cells will be identified as synthetic lethal/synergistic. Based on our preliminary data showing synergy between F7 and HDACi, we are expecting to identify HDAC family members in the RNAi screen. We will further narrow down the corresponding HDACi for each HDAC member identified, and study potential synergistic effects to achieve of killing CTCL cells. For example, our preliminary data has shown using an RNAi library plus the p38 inhibitor Ly2228820, we have successfully selected loss of HDAC3 as a synergistically lethal element to p38 pathway inhibition, including α, β, and γ isoforms of p38 by LY2228820 (10 uM) […] We will further test the combination of p38γ inhibition with several HDAC3 inhibitors (e.g., RGFP966) for further mechanistic study in Hut78 cells.

[21] = system: CTCL cells; experiment: Cell viability, CTCL cells (pirfenidone); type: cell-based; conditions: Homo sapiens, read-out: IC50 CTCL cell growth / cell killing
[22] = target: T3, p38γ (Mus musculus, UniProt O08911); conditions: requires a high dose; cited from earlier work
T3 construct: host or cells: mice (in vivo)
T3 sequence (O08911 whole entry): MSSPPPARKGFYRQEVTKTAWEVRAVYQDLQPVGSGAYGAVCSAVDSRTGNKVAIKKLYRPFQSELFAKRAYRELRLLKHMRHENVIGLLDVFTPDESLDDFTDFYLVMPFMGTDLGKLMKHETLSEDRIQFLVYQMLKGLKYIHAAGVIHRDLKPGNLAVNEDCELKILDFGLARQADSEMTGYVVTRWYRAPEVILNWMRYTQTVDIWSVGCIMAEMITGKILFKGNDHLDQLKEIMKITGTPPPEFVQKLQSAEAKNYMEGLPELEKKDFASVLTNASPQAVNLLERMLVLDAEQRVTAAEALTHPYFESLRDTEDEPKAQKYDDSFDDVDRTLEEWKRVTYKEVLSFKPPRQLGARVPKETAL

Chain of PI3Kγ (P48736 whole entry, canonical isoform): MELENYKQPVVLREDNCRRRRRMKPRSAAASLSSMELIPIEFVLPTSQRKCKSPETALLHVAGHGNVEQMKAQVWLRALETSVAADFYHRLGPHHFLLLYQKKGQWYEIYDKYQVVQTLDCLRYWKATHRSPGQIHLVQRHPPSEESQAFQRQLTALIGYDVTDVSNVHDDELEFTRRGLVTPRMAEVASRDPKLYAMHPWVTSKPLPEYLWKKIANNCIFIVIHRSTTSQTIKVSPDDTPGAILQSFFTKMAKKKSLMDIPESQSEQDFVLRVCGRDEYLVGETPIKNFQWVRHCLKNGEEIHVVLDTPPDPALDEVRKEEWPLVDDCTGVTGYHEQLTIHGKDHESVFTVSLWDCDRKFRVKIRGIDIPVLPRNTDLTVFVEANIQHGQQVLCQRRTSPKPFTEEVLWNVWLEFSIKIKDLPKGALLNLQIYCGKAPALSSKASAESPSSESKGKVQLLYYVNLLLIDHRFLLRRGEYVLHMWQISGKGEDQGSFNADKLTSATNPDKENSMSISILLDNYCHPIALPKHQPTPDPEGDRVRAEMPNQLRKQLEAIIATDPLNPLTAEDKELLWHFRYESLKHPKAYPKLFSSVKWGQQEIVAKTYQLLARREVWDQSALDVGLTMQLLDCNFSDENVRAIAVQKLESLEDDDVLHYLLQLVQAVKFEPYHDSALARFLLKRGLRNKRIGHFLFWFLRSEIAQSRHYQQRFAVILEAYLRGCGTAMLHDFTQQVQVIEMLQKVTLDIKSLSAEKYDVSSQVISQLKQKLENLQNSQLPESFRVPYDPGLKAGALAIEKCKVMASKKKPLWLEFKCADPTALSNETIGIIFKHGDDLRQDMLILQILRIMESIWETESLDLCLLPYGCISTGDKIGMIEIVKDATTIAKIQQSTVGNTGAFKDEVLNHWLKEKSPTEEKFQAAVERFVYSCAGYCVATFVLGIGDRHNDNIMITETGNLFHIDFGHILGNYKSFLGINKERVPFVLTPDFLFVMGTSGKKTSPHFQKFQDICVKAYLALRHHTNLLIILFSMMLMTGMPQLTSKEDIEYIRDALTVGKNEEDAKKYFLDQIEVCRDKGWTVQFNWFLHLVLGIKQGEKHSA

Structure (SMILES): Nc1ncnc2c1ncn2[C@@H]1O[C@H](COP(=O)(O)OP(=O)(O)OP(=O)(O)O)[C@@H](O)[C@H]1O [ATP]
- Km ([1]; p38γ, read-out: ATP Km): 3.2 ± 0.4 µM

Structure (SMILES): Cn1c(=O)n(-c2ccc(C(C)(C)C#N)cc2)c2c3cc(-c4cnc5ccccc5c4)ccc3ncc21 [BEZ235, Dactolisib]
- effect on viability of Hut78 cells [2]: only modest reduction of cell viability
- inhibitory kinase activity against p38γ [3]: no inhibitory kinase activities

Structure (SMILES): Cc1nc(NC(=O)N2CCC[C@H]2C(N)=O)sc1-c1csc(C(C)(C)C)n1 [Compound A66]
- effect on viability of Hut78 cells [2]: no influence
- phosphorylation of Akt at ser473 [4]: dose-dependent inhibition
- inhibitory kinase activity against p38γ [3]: no inhibitory kinase activities; also recorded: doesn't inhibit

Structure (SMILES): Cc1ccc([N+](=O)[O-])cc1S(=O)(=O)N(C)/N=C/c1cnc2ccc(-c3ccc(F)nc3)cn12 [Compound F7D10]
- IC50 [2]: ~2500 nM
- IC50 [3]: ~3400 nM

Structure (SMILES): Cc1ccc([N+](=O)[O-])cc1S(=O)(=O)N(C)/N=C/c1cnc2ccc(Br)cn12 [Compound F7]
- IC50 [2]: 42 nM
- IC50 [5]: 34 nM
- AnnexV_PI [6]: 17.8 Percentage
- Live cells [6]: 42.797 Percentage
- PI Stained [6]: 35.2 Percentage
- AnnexV_PI [7]: 25.5 Percentage
- Live cells [7]: 44.48 Percentage
- PI Stained [7]: 29.53 Percentage
- protein expression of p38 gamma [8]: reduces and eliminates the protein expression
- cell viability in Hut78 cells ([9]; FIG. 19B / FIG. 29A): reduced cell viability
- inhibition of growth ([9]; Hut78 CTCL cells, FIG. 19E): inhibition of growth
- induction of apoptosis ([9]; Hut78 CTCL cells, data not shown): selective induction of apoptosis
- proliferation of Hut78 cells ([9]; compared with Pirfenidone, FIG. 7): reduced proliferation of Hut78 cells more effectively than Pirfenidone
- inhibition of kinase activity [10]: selective, dose-dependent inhibition
- inhibition of growth ([11]; FIG. 19E): inhibition of growth
- induction of apoptosis ([11]; data not shown): selective induction of apoptosis
- inhibition of growth [12]: but not healthy CD4+ T cells
- killing of CTCL cells [13]: selectively kills CTCL cells at nanomolar concentrations
- effectiveness against CTCL cells ([13]; compared with PI3K-specific inhibitor A66, FIG. 28): more effective against CTCL cells than a PI3K-specific inhibitor
- inhibition of CTCL cell growth ([13]; compared with Vorinostat (SAHA)): more potent inhibitor of CTCL cell growth than the FDA-approved HDACi Vorinostat
- inhibition of tumor growth ([14]; 2 mg/kg, p=0.015, versus vehicle control): statistically significant dose-dependent inhibition of tumor growth
- inhibition of tumor growth ([14]; 10 mg/kg, p=0.025, versus vehicle control): statistically significant dose-dependent inhibition of tumor growth
- phosphorylation of p38γ substrate DLGH1 at Ser158 [15]: reduced phosphorylation
- phosphorylation of p38γ substrate DLGH1 at Ser158 [16]: reduced phosphorylation
- mechanism of inhibition ([1]; versus ATP): competitive mechanism
- IC50 [17]: 76 nM
- IC50 [18]: 46 nM
- inhibition of kinase activity [19]: selective, dose-dependent inhibition

Structure (SMILES): CS(=O)(=O)N1CCN(Cc2cc3nc(-c4cccc5[nH]ncc45)nc(N4CCOCC4)c3s2)CC1 [GDC-0941, Pictilisib]
- effect on viability of Hut78 cells [2]: only modest reduction of cell viability
- inhibitory kinase activity against p38γ [3]: no inhibitory kinase activities

Structure (SMILES): CC(C)(C)Cn1c(N)nc2ccc(-c3[nH]c(C(C)(C)C)nc3-c3ccc(F)cc3)nc21 [LY2228820]
- p38γ inhibition [20]: caused p38γ inhibition

Structure (SMILES): Cc1ccc(=O)n(-c2ccccc2)c1 [Pirfenidone]
- IC50 [2]: > 125000 nM
- IC50 [5]: > 125000 nM
- IC50 [21]: > 125000 nM
- p38γ inhibition in mice [22]: inhibits p38γ in mice
- IC50 [18]: > 125000 nM
- IC50 [3]: > 125000 nM
